Laboratory results as given in patent US20230416191A1, “Compounds, Compositions and Methods for the Treatment of CREB-dependent Diseases” (Sereno Sciences, Inc., priority 2022, published 2023).
Where two headings read alike, the source gives them in different places.

Assays:
[1] = tested on: CREB-mediated gene transcription; assay: Inhibition of CREB-mediated gene transcription (CRE Renilla luciferase reporter, forskolin stimulated); type: cell-based; conditions: 5 h, HEK293T CRE luciferase reporter cells, forskolin 10 uM
Method: The compounds were tested for their inhibition of CREB-mediated gene transcription according to the method described in Xie et al. J. Med. Chem. 2015, 58, 5075-5087. Generally, HEK293T cell transfected with luciferase reporter cell lines under CRE control were obtained from commercial sources. The cells were plated into 96-well plates (1-[…] cells/well). The cells were allowed to attach to the bottom of the wells overnight, when compounds of different concentrations were added to the cells. Forskolin (10 uM, LC Laboratories, Woburn, Mass.) was added 30 min after the addition of the compounds. The cells were then incubated at 37° C. for 5 h. The media in the wells were removed and the cells were then lysed in 30 µl of 1×Renilla luciferase lysis buffer (Promega, Madison, Wis.). To measure Renilla luciferase activity, five uL of the lysate was combined with 30 uI of benzyl-coelenterazine (Nanolight, Pinetop, Ariz.) solution in PBS (pH 7.4, 10 ug/mL). The sample protein concentration was determined by Dye Reagent Concentrate (Bio-Rad, Hercules, Calif). The Renilla luciferase activity was normalized to protein content in each well and expressed as relative luciferase unit/ug protein (RLU/ug protein). The IC50 was derived from non-linear regression analysis of the RLU/ug protein-concentration curve.

[2] = Mouse pharmacokinetics, plasma by LC-MS/MS; type: in vivo, mice (C57BL/6); conditions: female C57BL/6 mice
Method: The compound was formulated in an aqueous solution containing 5% Tween-80, 10% DMSO. Female mice (C57BL/6) were given a single dose of the formulation at 5 mg/kg (IV), 10 mg/kg (IP) and 20 mg/kg (orally). At different time points (0.083, 0.25, 0.5, 1, 2, 4, 8, 24 h) post drug administration, blood was collected and the plasma was prepared. The samples were stored at −80° C. until analysis. The drug concentration in the plasma was analyzed by LC-MS/MS.

HL-60 cells = assay: AML xenograft model; type: in vivo; conditions: HL-60 xenograft in NSG mice, 2 mg/kg IV daily
Method: For AML xenograft mouse experiments, HL-60 cells (2×10^6) expressing firefly luciferase and GFP are injected through the tail vein into 4-6 week old NOD. Cg-Prkdc^acid Il2rg^tmlWjlSzJ (NSG) mice. Mice are then treated with 2 mg/kg SRS-1006 or 10% DMSO, injected intravenously by tail vein daily seven days after AML cell injection, until death or an endpoint is reached (moribundity) in accordance with the animal care institutional guidelines. Leukemia progression in mice at the indicated time points is monitored using an in vivo IVIS 100 bioluminescenceoptical imaging system (Xenogen Corporation). D-Luciferin (Promega) dissolved in sterile phosphate-buffered saline was injected intraperitoneally at a dose of […], 15 minutes before measuring the luminescent signal. General anesthesia is induced with […] and continued during the procedure using a nose cone. Analysis is performed on Living Image In Vivo imaging software (Perkin-Elmer). Bone marrow is aspirated from bone marrow cavities, and GFP+cells is sorted using the FACSCalibur flow cytometer (BD Biosciences).

HL-60 = assay: Cytotoxicity assay (Cell-titer-Glow, 72 hr); type: cell-based; conditions: Homo sapiens; leukemia cell line HL-60, 72hr; read-out: IC50 for inhibition of HL-60
Method: (§1) The cells were obtained from ATCC, IMDM was obtained from Lonza, and FBS was obtained from Hyclone. Cell-titer-Glow for cytotoxicity was from Promega. Sterile 96-well tissue culture plates were from Corning. Different concentrations of the test compounds were tested in triplicate wells of either 96-well or 384-well tissue culture plates. The screening was repeated two additional times. The cells from ATCC were thawed, washed once with complete media, and cultured in T75 flask in a 37C CO2 incubator. Cell density was maintained between 5×10 5 to 1×10^6 cells/ml. Compounds were individually weighed and dissolved in DMSO to obtain 10 mM solutions of each and stored at −20° C. until used. To select concentrations of the compounds for cytotoxicity, all the compounds were initially tested at 100 μM and 30 μM in a 48 hr cytotoxicity assay. Two microliter of each concentration of the test compounds were transferred into triplicate wells of a 96-well tissue culture plate. Into each well 100 μof the cell suspension was added, the plate was lidded and incubated at 37° C. in a 5% CO2 incubator maintained at 95% humidity After 72hr of incubation, the plate was removed from the incubator, and the cell viability was determined using Cell-titer-glow reagent as per the protocol described in the kit manual. Signals from the plate was measured using Victor-II plate reader. The raw data from the plate reader were exported to Excel. For each concentration of the drug tested the average signal and SD from the triplicate wells, as well as the percent cytotoxicity were calculated. The resulting data were exported to Prism-graph-pad, the % cytotoxicity was plotted against log concentration and the resulting curves were fitted using non-linear dose response fit and the resulting IC50 values were extracted.

KG-1 = assay: Cytotoxicity assay (Cell-titer-Glow, 72 hr); type: cell-based; conditions: Homo sapiens; leukemia cell line KG-1, 72hr; read-out: IC50 for inhibition of KG-1
Method: as §1

NaLM6 = assay: Cytotoxicity assay (Cell-titer-Glow, 72 hr); type: cell-based; conditions: Homo sapiens, NALM-6; leukemia cell line NaLM6, 72hr; read-out: IC50 for inhibition of NaLM6
Method: as §1

Hs587T = assay: Cytotoxicity assay (Cell-titer-Glow, 72 hr); type: cell-based; conditions: breast cancer line Hs587T, read-out: IC50 for inhibition of Hs587T
Method: as §1

MV-411 = assay: Cytotoxicity assay (Cell-titer-Glow, 72 hr); type: cell-based; conditions: Homo sapiens, MV4-11; leukemia cell line MV-411, 72hr; read-out: IC50 for inhibition of MV-411
Method: as §1

BT-474 = assay: Cytotoxicity assay (Cell-titer-Glow, 72 hr); type: cell-based; conditions: Homo sapiens; breast cancer line BT-474, 72hr; read-out: IC50 for inhibition of BT-474
Method: as §1

A549 = assay: Cytotoxicity assay (Cell-titer-Glow, 72 hr); type: cell-based; conditions: Homo sapiens, A549 cells, read-out: IC50 for inhibition of A549
Method: as §1

MiaPaCa2 = assay: Cytotoxicity assay (Cell-titer-Glow, 72 hr); type: cell-based; conditions: Homo sapiens, MIA PaCa-2, MiaPaCa2 cells, read-out: IC50 for inhibition of MiaPaCa2
Method: as §1

Hep3B = assay: Cytotoxicity assay (Cell-titer-Glow, 72 hr); type: cell-based; conditions: Homo sapiens, Hep3B cells, read-out: IC50 for inhibition of Hep3B
Method: as §1

MCF-7 = assay: Cytotoxicity assay (Cell-titer-Glow, 72 hr); type: cell-based; conditions: Homo sapiens, MCF7; breast cancer line MCF-7, 72hr; read-out: IC50 for inhibition of MCF-7
Method: as §1

[3] = in vivo; cited from earlier work

Molecule `NCCCOc1cc2ccccc2cc1C(=O)NCCOc1cc2ccccc2cc1C(=O)Nc1ccccc1` [SRS-1001] has an IC50 ([1]; Homo sapiens, HEK-293T) of 1260 nM.

Molecule `NCCCOc1cc2ccccc2cc1C(=O)NCCOc1cc2ccccc2cc1C(=O)Nc1ccc(Cl)cc1` [SRS-1002] has an IC50 ([1]; Homo sapiens, HEK-293T) of 1550 nM.

Molecule `NCCCOc1cc2ccccc2cc1C(=O)NCCOc1cc2ccccc2cc1C(=O)Nc1ccc(F)cc1` [SRS-1003] has an IC50 ([1]; Homo sapiens, HEK-293T) of 410 nM.

`N#Cc1ccc(NC(=O)c2cc3ccccc3cc2OCCNC(=O)c2cc3ccccc3cc2OCCCN)cc1` [SRS-1004] gave an IC50 ([1]; Homo sapiens, HEK-293T) of 1200 nM.

In the case of `NCCCOc1cc2ccccc2cc1C(=O)NCCOc1cc2ccccc2cc1C(=O)Nc1ccc(Cl)cc1Cl` [SRS-1005], the IC50 ([1]; Homo sapiens, HEK-293T) is reported as 1550 nM.

In the case of `Cl.NCCCOc1cc2ccccc2cc1C(=O)NCCOc1cc2ccccc2cc1C(=O)Nc1ccccc1F` [SRS-1006], the bioavailability ([2]; single dose 5 mg/kg IV, read-out: IV bioavailability) is reported as 100%, the bioavailability ([2]; single dose 10 mg/kg IP, read-out: IP bioavailability) is reported as 100% and the bioavailability ([2]; po, single dose 20 mg/kg orally, read-out: oral bioavailability) is reported as 67%. For the same molecule, the IC50 ([1]; Homo sapiens, HEK-293T) was 180 nM, the “median survival in Kaplan-Meier analysis” value (HL-60 cells) was “significantly prolonged” and the “disease burden by bioluminescence imaging” value (HL-60 cells; compared to control) was “less disease burden”. It also gave an IC50 (HL-60) of 650 nM, an IC50 (KG-1) of 3390 nM and an IC50 (NaLM6) of 970 nM. For the same molecule, the IC50 (Hs587T) was 3690 nM, the IC50 (MV-411) was 990 nM and the IC50 (BT-474) was 5210 nM. The IC50 (A549) was 1490 nM, the IC50 (MiaPaCa2) was 1700 nM and the IC50 (Hep3B) was 1460 nM. It also gave an IC50 (MCF-7) of 1470 nM.

For `NCCCOc1cc2ccccc2cc1C(=O)NCCOc1cc2ccccc2cc1C(=O)Nc1c(F)cccc1F` [SRS-1007], the IC50 [1] was 410 nM and the IC50 ([1]; Homo sapiens, HEK-293T) was 450 nM.

In the case of `O=C(Nc1ccc(Cl)cc1)c1cc2ccccc2cc1O` [napththol AS-E, naphthol AS-E], the bioavailability [3] is given as “low”.
